Several values for one entry are separate records, joined by “and”; a condition that tells them apart may be missing. Identical values can stand only once. Like-named read-outs stand apart in the source and are kept apart here.
Columns and labels:
GK rats [1] = assay: GK rat chronic efficacy (28 days: glucose, food intake, body weight, GLP-1, GIP, PYY, insulin, glucagon); type: in vivo; settings: 30 mpk, day 28, fed, individual animals
Experimental: At the start of the study, fed (ambient) blood glucose was measured via glucometer at 1 h post lights on, and animals were selected and sorted into treatment groups based on ambient glucose (n = 10/ GK group, n = 6 WKY control). Blood for baseline incretin measurements was collected in the PM via tail vein. Rats were dosed via oral gavage (PO) at a volume of 5 ml/kg daily at approximately 12:30 PM with either vehicle (0.5% methylcellulose), AP1 at 30 mg/kg, or AP3 at 30 mg/kg. MK-8666, a GPR40 partial agonist synthesized at Merck & Co., Inc., Kenilworth, NJ USA [13], at 30 mg/kg was administered in feed (Research Diets, New Brunswick, NJ) and provided ad lib. All compounds were administered to achieve maximal efficacious exposures determined in acute efficacy studies similar to those acute studies described above. In brief, partial agonists and AgoPAMs were titrated in the acute GK rat experiment described above and the exposure associated with maximal efficacy in glucose lowering was noted. Partial agonists and AgoPAMs were then dosed to maintain those exposures up to 24h post dose. […] Rats from this group and the WKY controls were administered vehicle PO when the vehicle, AP1, and AP3 groups were treated. Fed blood glucose, food intake, and body weights were determined on days 10, 17, 23, and 28 of study at 2 h post lights on. Immediately after these measures were taken on days 10, 17, 23, and 28, food was removed. After 5h of fasting, animals were dosed with vehicle or compound and allowed to rest for an additional hour. Glucose, GLP-1, GIP, and PYY were measured after 6h of fasting at 1 hr post dose. Fed blood glucose is described by animals having had ad libidum access to feed up till the time of sampling and occurred at 2h post-lights on where rats were nearing the end of their nocturnal feeding cycle. Fasted blood glucose is described by blood glucose sampled after 6h of fasting where food was removed at 2h post lights on. Please note that the fasted sample was taken 1h post oral dosing. On day 10, blood was collected from the tail vein (20 μl) after morning glucose measures and after 6 hour fast from a subset of n = 3 rats per treatment group to determine the fed and fasted exposure of the compounds in circulation. The blood was stored at 4°C in 0.1 M sodium citrate for subsequent analysis of drug exposure.
Blood for insulin, glucagon, GLP-1, GIP, and PYY measurements was collected into K2EDTA Microtainer tubes (BD, Franklin Lakes, NJ) pre-treated with DPP4 inhibitor (Millipore, Billerica, MA) and cOmplete™ Protease Inhibitor Cocktail Tablets (Roche Diagnostics, Indianapolis, IN). Tubes were centrifuged for 10 minutes at 5000 RPM, and plasma was aliquotted for analysis. Plasma insulin levels were measured via EIA (Mesoscale Discovery ELISA Kit, Gaithersburg MD). Rat plasma total GLP-1 was measured using Total GLP-1 (ver.2) Assay Kit (Cat#: K150JVC). The measurement of active GLP-1 was carried out in a similar manner as that described for total GLP-1 assay with the exception that MSD Active GLP-1 (ver. 2) assay kit (Cat# K150JWC) was used. Rat plasma glucagon was measured using an in-house glucagon assay developed as a MSD format sandwich immunoassay (Merck & Co., Inc., MRL, Kenilworth, NJ USA). The antibody specificity was cross validated via mass- spec using procedures described in Lee et al. Briefly, MSD Streptavidin Gold plates were coated with 2 μg/ml biotin mouse monoclonal antibody generated to glucagon. Test samples were added to the plates and a separate Sulfo- tagged monoclonal antibody was used to detect the captured glucagon protein (2 μg/ml). The ELISA was carried out in the standard reagents in the MSD format. The plate was read on the SECTOR Imager 6000 Reader. Metabolic hormones GIP (Gastric Inhibitory Polypeptide) and PYY (Peptide YY) were measured in rat plasma using the Rat Metabolic Magnetic Bead Panel (EMD Millipore, Billerica, MA). The assay was performed according to manufacturer protocol. […]

GK rats [2] = assay: GK rat acute efficacy (glucose, insulin, glucagon after single dose); type: in vivo; settings: 100 mpk
Experimental: Ambient blood glucose was measured via tail snip with a glucometer (OneTouch Ultra, Lifescan Inc., Milpitas, CA). Body weights were then measured, and food was removed approximately 1 hr post lights on. Animals were sorted into treatment groups based on ambient glucose. At approximately 10 AM, glucose was measured and blood for insulin, glucagon, and drug exposure was collected. […] Each compound tested was dosed at its maximal effective dose determined through a series of dose titrations using this experimental paradigm (data not shown). Effects of treatment on glucose, insulin, and glucagon were measured at 1, 2, 4, and 24 hrs post dose. After the 4 hr blood collection, food was returned overnight and removed the next day at 1 hr post lights on.
Blood for insulin, glucagon, GLP-1, GIP, and PYY measurements was collected into K2EDTA Microtainer tubes (BD, Franklin Lakes, NJ) pre-treated with DPP4 inhibitor (Millipore, Billerica, MA) and cOmplete™ Protease Inhibitor Cocktail Tablets (Roche Diagnostics, Indianapolis, IN). Tubes were centrifuged for 10 minutes at 5000 RPM, and plasma was aliquotted for analysis. Plasma insulin levels were measured via EIA (Mesoscale Discovery ELISA Kit, Gaithersburg MD). Rat plasma total GLP-1 was measured using Total GLP-1 (ver.2) Assay Kit (Cat#: K150JVC). The measurement of active GLP-1 was carried out in a similar manner as that described for total GLP-1 assay with the exception that MSD Active GLP-1 (ver. 2) assay kit (Cat# K150JWC) was used. Rat plasma glucagon was measured using an in-house glucagon assay developed as a MSD format sandwich immunoassay (Merck & Co., Inc., MRL, Kenilworth, NJ USA). The antibody specificity was cross validated via mass- spec using procedures described in Lee et al. Briefly, MSD Streptavidin Gold plates were coated with 2 μg/ml biotin mouse monoclonal antibody generated to glucagon. Test samples were added to the plates and a separate Sulfo- tagged monoclonal antibody was used to detect the captured glucagon protein (2 μg/ml). The ELISA was carried out in the standard reagents in the MSD format. The plate was read on the SECTOR Imager 6000 Reader. Metabolic hormones GIP (Gastric Inhibitory Polypeptide) and PYY (Peptide YY) were measured in rat plasma using the Rat Metabolic Magnetic Bead Panel (EMD Millipore, Billerica, MA). The assay was performed according to manufacturer protocol.

rat GPR40 = biological target: T1, rat GPR40 (Rattus norvegicus, UniProt Q8K3T4); assay: Rat GPR40 IP1 accumulation assay; type: cell-based
T1 construct: expressed in transfected cells; host or cells: CHO-K1 (methods)
T1 sequence (Q8K3T4 whole entry): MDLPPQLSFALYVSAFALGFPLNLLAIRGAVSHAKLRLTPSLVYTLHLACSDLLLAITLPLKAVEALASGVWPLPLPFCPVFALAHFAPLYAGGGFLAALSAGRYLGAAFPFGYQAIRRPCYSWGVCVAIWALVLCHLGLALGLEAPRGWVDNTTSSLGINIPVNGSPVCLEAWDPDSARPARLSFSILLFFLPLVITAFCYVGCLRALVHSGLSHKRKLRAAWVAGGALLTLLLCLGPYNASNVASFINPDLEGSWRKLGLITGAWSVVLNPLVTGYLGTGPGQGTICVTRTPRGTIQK
Experimental: (§1) Stable cell lines expressing human GPR40 (hGPR40/HEK293), mouse GPR40 (mGPR40/CHO-K1), and rat GPR40 (rGPR40/CHO-K1) were cultured in DMEM media supplemented with 10% FBS, glutamine, non-essential amino acids, and penicillin/streptomycin. hGPR40/HEK293 & mGPR40/CHO-K1 cell media was supplemented with […] G418 (Life Technologies), while rGPR40/CHO-K1 cells were grown in […] blasticidin plus […] hygromycin (Life Technologies). Cell stocks were maintained and grown in a sub-confluent state using standard cell culture procedures. The day before the experiment, the cells were harvested with non-enzymatic cell dissociation buffer and re-suspended in DMEM supplemented with 10% FBS, glutamine, non-essential amino acids, penicillin/streptomycin at 0.15, 0.2 and 0.3 million cells per ml for human, mouse, and rat GPR40, respectively. […] The seeded plates were incubated overnight at 37 C.
(§2) On the day of the experiment, the growth media was removed from the assay by gently patting the assay plates on an absorbent sheet and 10 μl of IP1 stimulation buffer (Cis Bio IP-one Tb HTRF kit) supplemented with 50 mM LiCl is added to each well. Test compounds dissolved in DMSO were serially diluted in ½ log increments starting from 2 mM or 0.2 mM and 50 nl of the compound dilution was acoustically added to each well (final starting concentration 10 μM or 1 μM). Plates were then incubated for 60 minutes at room temperature and 10 μl of detection buffer (prepared as described in the Tb kit) is added to each well. The plates are then incubated one additional hour at room temperature. […] For each assay, a standard curve plate in which IP1 is titrated is also included. […] The percent activity at each concentration of test compound is determined using 0% activation (basal activity) determined in those wells that contain DMSO alone, while 100% activity is determined in wells that contained a concentration of a partial allosteric agonist know to activate GPR40. The % activity is then plotted versus the concentration of test compound and the dose response curve fitted to a standard 4-parameter non-linear regression model using a custom in-house developed software package (Merck & Co., Inc., MRL, Kenilworth, NJ, USA). Maximal % activity and EC50 are then determined for each test compound.

mouse GPR40 = biological target: T2, mouse GPR40 (Mus musculus, UniProt Q76JU9); assay: Mouse GPR40 IP1 accumulation assay; type: cell-based
T2 construct: expressed in transfected cells; host or cells: CHO-K1 (methods)
T2 sequence (Q76JU9 whole entry): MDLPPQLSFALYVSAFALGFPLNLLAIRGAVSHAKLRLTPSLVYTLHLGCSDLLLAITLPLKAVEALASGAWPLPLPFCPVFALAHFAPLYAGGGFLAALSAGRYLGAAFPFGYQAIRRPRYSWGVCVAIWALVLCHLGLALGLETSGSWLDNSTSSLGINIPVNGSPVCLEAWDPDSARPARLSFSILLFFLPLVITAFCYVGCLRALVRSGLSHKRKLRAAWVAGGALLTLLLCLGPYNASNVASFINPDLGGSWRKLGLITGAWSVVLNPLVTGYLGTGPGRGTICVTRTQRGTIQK
Experimental: as §1, §2

C[C@H](C(=O)O)[C@H](c1ccc2c(c1)O[C@H](C1CN(Cc3cc(C(F)(F)F)ccc3C(F)(F)F)C1)CC2)C1CC1 [P3]
Fed glucose on day 28 (Fig 3B) (GK rats [1]): 141 and 132 and 113 and 119 and 112 and 106 and 116 and 101

Cc1cc(OCCCS(C)(=O)=O)cc(C)c1-c1cccc(COc2ccc3c(c2)OC[C@H]3CC(=O)O)c1 [TAK]
Plasma Glucagon Over Time (Fig 2C) (GK rats [2]; time 0, individual animals): 75.2366 pg/mL and 59.5419 pg/mL and 46.7473 pg/mL and 119.065 pg/mL and 82.5246 pg/mL and 83.5453 pg/mL and 74.4881 pg/mL and 90.3444 pg/mL
Plasma Insulin Over Time (Fig 2B) (GK rats [2]; time 0, individual animals): 2.655 ng/mL and 1.525 ng/mL and 2.703 ng/mL and 2.889 ng/mL and 1.936 ng/mL and 1.972 ng/mL and 2.503 ng/mL and 2.551 ng/mL
Plasma Glucagon Over Time (Fig 2C) (GK rats [2]; time 1, individual animals): 168.277 pg/mL and 120.989 pg/mL and 104.57 pg/mL and 184.364 pg/mL and 130.682 pg/mL and 112.051 pg/mL and 81.0192 pg/mL and 132.45 pg/mL
Plasma Insulin Over Time (Fig 2B) (GK rats [2]; time 1, individual animals): 3.3854 ng/mL and 2.854 ng/mL and 4.397 ng/mL and 4.229 ng/mL and 2.551 ng/mL and 2.055 ng/mL and 2.175 ng/mL and 2.74 ng/mL
Plasma Glucagon Over Time (Fig 2C) (GK rats [2]; time 2, individual animals): 165.323 pg/mL and 244.359 pg/mL and 138.27 pg/mL and 211.843 pg/mL and 72.9369 pg/mL and 186.55 pg/mL and 94.6201 pg/mL and 160.38 pg/mL
Plasma Insulin Over Time (Fig 2B) (GK rats [2]; time 2, individual animals): 2.858 ng/mL and 2.437 ng/mL and 3.152 ng/mL and 3.268 ng/mL and 1.276 ng/mL and 1.644 ng/mL and 1.778 ng/mL and 2.202 ng/mL
Plasma Glucagon Over Time (Fig 2C) (GK rats [2]; time 4, individual animals): 85.2047 pg/mL and 62.7395 pg/mL and 105.981 pg/mL and 18.1244 pg/mL and 124.809 pg/mL and 199.712 pg/mL and 103.043 pg/mL and 175.312 pg/mL
Plasma Insulin Over Time (Fig 2B) (GK rats [2]; time 4, individual animals): 1.494 ng/mL and 1.787 ng/mL and 2.636 ng/mL and 1.66 ng/mL and 1.848 ng/mL and 1.214 ng/mL and 2.191 ng/mL and 1.8763 ng/mL
Plasma Glucagon Over Time (Fig 2C) (GK rats [2]; time 24, individual animals): 86.4436 pg/mL and 115.249 pg/mL and 67.5931 pg/mL and 36.8268 pg/mL and 81.8289 pg/mL and 118.991 pg/mL and 35.1523 pg/mL and 94.7909 pg/mL
Plasma Insulin Over Time (Fig 2B) (GK rats [2]; time 24, individual animals): 1.093 ng/mL and 1.2004 ng/mL and 2.002 ng/mL and 0.9338 ng/mL and 1.238 ng/mL and 1.808 ng/mL and 1.437 ng/mL and 1.841 ng/mL

CC#C[C@@H](CC(=O)O)c1ccc(OCc2cccc(-c3ccc(C(F)(F)F)cc3)c2)cc1 [AMG-837, reference compound]
EC50 (rat GPR40; EC50 (nM), Rat GPR40, Functional Assay, individual determinations): 1.9 nM and 1.6 nM and 1.2 nM and 0.9 nM and 1.8 nM and 1.1 nM
EC50 (rat GPR40; individual determinations, read-out: EC50 (nM), Rat GPR40, Functional Assay): 1.3 nM and 2.2 nM
EC50 (rat GPR40; mean ± SD, n = 2–20, IP accumulation, read-out: Potency [EC50, nM] ± SD, Rat): 1.5 ± 0.41 nM
EC50 (mouse GPR40; EC50 (nM), Mouse GPR40, Functional Assay, individual determinations): 2.6 nM and 3.6 nM and 1.7 nM and 1.1 nM and 1.8 nM
EC50 (mouse GPR40; Potency [EC50, nM] ± SD, Mouse, mean ± SD, n = 2–20, IP accumulation): 1.9 ± 0.76 nM
EC50 (mouse GPR40; individual determinations, read-out: EC50 (nM), Mouse GPR40, Functional Assay): 2 nM

— paper PMC5650142, “GPR40 partial agonists and AgoPAMs: Differentiating effects on glucose and hormonal secretions in the rodent” (PLoS ONE, 2017)
